Tests used:
Carbonic anhydrase 9 = Carbonic anhydrase 9 (Homo sapiens, UniProt Q16790)
Carbonic anhydrase 2 = Carbonic anhydrase 2 (Homo sapiens, UniProt P00918); assay: Inhibition of human carbonic anhydrase 2 by Stopped-Flow CO2 Hydrase assay
Carbonic anhydrase 1 = Carbonic anhydrase 1 (Homo sapiens, UniProt P00915); assay: Inhibition of human carbonic anhydrase 1 by Stopped-Flow CO2 Hydrase assay
Carbonic anhydrase 12 = Carbonic anhydrase 12 (Homo sapiens, UniProt O43570)
Sequence of Carbonic anhydrase 12 (O43570 whole entry): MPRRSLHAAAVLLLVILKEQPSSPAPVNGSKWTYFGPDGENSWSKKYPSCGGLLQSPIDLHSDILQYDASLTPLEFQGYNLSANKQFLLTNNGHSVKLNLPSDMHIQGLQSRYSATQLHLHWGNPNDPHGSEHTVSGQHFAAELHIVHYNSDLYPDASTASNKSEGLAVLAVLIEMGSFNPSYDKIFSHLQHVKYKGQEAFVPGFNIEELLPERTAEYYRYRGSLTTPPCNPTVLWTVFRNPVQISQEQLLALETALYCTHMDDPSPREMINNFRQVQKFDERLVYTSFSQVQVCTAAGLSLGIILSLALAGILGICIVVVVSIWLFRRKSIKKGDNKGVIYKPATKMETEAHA

Sequence of Carbonic anhydrase 1 (P00915 whole entry): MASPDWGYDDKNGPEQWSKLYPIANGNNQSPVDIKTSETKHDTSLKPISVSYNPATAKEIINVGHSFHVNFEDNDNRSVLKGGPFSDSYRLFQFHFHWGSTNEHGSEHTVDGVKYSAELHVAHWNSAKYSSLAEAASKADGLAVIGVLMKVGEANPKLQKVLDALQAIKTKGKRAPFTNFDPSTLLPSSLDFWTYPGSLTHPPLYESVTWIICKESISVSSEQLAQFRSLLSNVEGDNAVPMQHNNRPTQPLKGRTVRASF

Row | Ki (Carbonic anhydrase 9) [nM] | Ki (Carbonic anhydrase 2) [µM] | Ki (Carbonic anhydrase 1) [µM] | Compound | Ki (Carbonic anhydrase 12) [nM]
1 | – | > 100 | – | C=CCOc1cc(=O)oc2ccccc12 | –
2 | – | 285 | – | Oc1ccc2oc(=S)ccc2c1 | –
3 | – | > 100 | > 100 | S=c1ccc2ccccc2s1 | –
4 | 4 | > 100 | > 200 | S=c1ccc2ccc(OCc3cn(-c4ccccc4)nn3)cc2o1 | –
5 | 190 | > 100 | > 100 | O=c1ccc2cc(O)ccc2o1 [6-HYDROXYCOUMARIN] | 680
6 | – | > 100 | – | C=CCOc1ccc2oc(=O)ccc2c1 | –
7 | 41600 | > 100 | 950 | C#CCOc1ccc2ccc(=S)oc2c1 | –
8 | – | > 100 | > 100 | O=c1ccc2ccccc2s1 | –
9 | – | > 100 | – | C=CCOc1ccc2ccc(=O)oc2c1 [7-ALLYLOXYCOUMARIN] | –
10 | 8 | > 100 | > 200 | O=c1ccc2ccc(OCc3cn(-c4ccccc4)nn3)cc2o1 | –
11 | – | > 100 | – | C=CCOc1ccc2oc(=S)ccc2c1 | –
12 | – | > 100 | 72 | C#CCOc1ccc2ccc(=O)oc2c1 | –
13 | – | > 100 | – | Oc1ccc2ccc(=S)oc2c1 | –
14 | – | > 100 | – | C=CCOc1cc(=S)oc2ccccc12 | –
15 | 6700 | > 100 | > 100 | S=c1ccc2ccccc2o1 | –
16 | – | > 100 | – | C=CCOc1ccc2ccc(=S)oc2c1 | –

Row | Compound | Ki (Carbonic anhydrase 9) [nM] | Ki (Carbonic anhydrase 2) [µM] | Ki (Carbonic anhydrase 1) [µM] | Ki (Carbonic anhydrase 12) [nM]
17 | C#CCCCOc1ccc2ccc(=O)oc2c1 | 830 | > 100 | 124 | 370
18 | CC(C)(C)[Si](C)(C)Oc1ccc2oc(=O)ccc2c1 | – | > 100 | – | –
19 | CC(C)(C)[Si](C)(C)Oc1ccc2oc(=S)ccc2c1 | – | > 100 | – | –
20 | CC(C)(C)[Si](C)(C)Oc1ccc2ccc(=O)oc2c1 | – | > 100 | – | –
21 | C#CCCCOc1ccc2ccc(=S)oc2c1 | 220 | > 100 | > 200 | –
22 | O=c1cc(O)c2ccccc2o1 [4-HYDROXYCOUMARINS] | 410 | > 100 | 95 | 6300
23 | CC(C)(C)[Si](C)(C)Oc1ccc2ccc(=S)oc2c1 | – | > 100 | – | –
